Assay results: article PMC5577515, “Peptide‐Directed Binding for the Discovery of Modulators of α‐Helix‐Mediated Protein–Protein Interactions: Proof‐of‐Concept Studies with the Apoptosis Regulator Mcl‐1” (Angewandte Chemie (International Ed. in English), 2017)
Where two headings read alike, the source gives them in different places. Blank lines part the entries; values can stand above or below the compound they belong to. Peptide text beside a SMILES is read from it. * marks the point of attachment. X3 = O=C(Cn1cc(-c2ccc([N+](=O)[O-])cc2)nn1)*; X4 = O=C(Cn1cc(-c2c(O)ccc3ccccc23)nn1)*; X2 = COc1ccc(OC)c(-c2cn(CC(=O)*)nn2)c1; X1 = O=C(Cn1cc(-c2ccc(Cl)cc2Cl)nn1)*

What was measured:
[1] = target: T1, Mcl-1 (UniProt P97287+Q07820); experiment: Competitive fluorescence anisotropy (FA) assay, FITC-NoxaB displacement from Mcl-1; format: binding; conditions: SEM, read-out: FA IC50
T1 construct: amino acid residues 152-189 of mouse Mcl-1 fused with amino acid residues 209-327 of; 8 x His (N); TEV site (N); made in house; host or cells: E. coli BL21(DE3)pLysS
Description: Fmoc, 9-fluorenylmethylcarbony. IC50 determined by non -linear regression of at least three experiments.
4. Fluorescence Anisotropy Binding Assay
Fluorescence anisotropy was carried out on a BMG Labtech clariostar microplate reader with a fluorescence anisotropy optic measuring at 482/530 nm. Low -binding, Corning 96 -well black plates were used and all reagents used in the assay were biological grade and purchased from Sigma Aldrich and Novabioche m. All solutions were made using MilliQ water .
Anisotropy values were automatically calculated using the following formula […]
Where r = anisotropy, l a = parallel emission light, lb = perpendicular emission light and I = total […]
KD was determined using GraphPad Prism Version 6.0 software, using the One Site – Total binding […]
Where Bmax is the maximum specific binding, KD is the equilibrium binding constant, and NS is the slope of nonspecific binding. […]
IC50 was determined using GraphPad Prism Version 6.0 software, using a four-parameter logistic model, according to precedent from Ottmann and co-workers.[5] Errors are the transformed greater extreme of the standard error. […]
For binding each well contained 10 µL of Mcl -1 protein in 10-fold dilutions (0.37 pM to 3.7 µM) […]
protein were dissolved in PBS: 0.05% Tween -20 buffer at pH 7.4. Reagents were incubated for 30 min at room temperature prior to reading. Bubbles were removed and 8 data points were generated.
Figure S 1: Fluorescence Anisotropy direct titration.
To confirm reproducibility of
(µ) and standard deviations (σ) were inputted into the following equation:
Inhibition screens were carried out using 10 nM Mcl -1, 5 nM fluorescently-tagged peptide and 100 µM of inhibitor. Compounds were dissolved in DMSO. […]
control (DMSO) were used to define the mini mum and maximum values and ensure the assay was […]
(1 picture or pasted object on this page, not shown here) […]
Bubbles were removed and 8 data points were generated. […]

[2] = tested on: MiaPaCa-2 cells; experiment: MTS cytotoxicity assay, MiaPaCa-2; format: cell-based; conditions: 37 °C, triplicate, at least three experiments, errors = transformed greater extreme of standard error, read-out: MiaPaCa-2 cell growth inhibition IC50
Description: (§1) CUSTOM_[…] ("<1>=[N+]",("charge", 0, 2)) […]
(§2) CUSTOM_[…] ("<1>=[N]=[N]",("bond",1,(2,3))) […]
(§3) CUSTOM_[…] ("<1>([C]=[C])=[N][N]",("bond",1,(3,5))) […]
(§4) The MiaPaCa-2 cell line, BxPC-3 cell line and AsPC-1 cell line were purchased from the European Collection of Cell Cultures (ECACC, Porton Down, UK). MiaPaCa-2 cells were cultured in DMEM media with 2 mM L-glutamine, 100 U/mL penicillin, 100 µg/mL streptomycin and 10% FCS.
(§5) BxPC-3 cells and AsPC-1 cells were cultured in RPMI-1640 media containing 2 mM L-glutamine, 100 U/mL penicillin, 100 µg/mL streptomycin and 10% FCS. Cells were sub-cultured twice weekly and maintained at 37 °C and 5% CO2.
(§6) The anti-proliferative activity of the compounds studied was assessed by MTS assay (Promega) following the manufacturer’s instructions. Cells were seeded at 5 x 103 / 100 μL in a 96-well plate and left untreated or treated with DMSO (vehicle control), or compounds 1-4 (100 μM – […], in well concentration) in triplicate for 72 h at 37 °C with 5% CO2. Following this, MTS assay reagent was added to each well and the plates incubated for 4 h at 37 °C with 5% CO2. The absorbance was measured at 492 nm using the BMG Labtech POLARstarOPTIMA microplate reader. […]

[3] = tested on: AsPC-1 cells; experiment: MTS cytotoxicity assay, AsPC-1; format: cell-based; conditions: 37 °C, triplicate, at least three experiments, errors = transformed greater extreme of standard error, read-out: AsPC-1 cell growth inhibition IC50
Description: as §1, §2, §3, §4, §5, §6

[4] = tested on: BxPC-3 cells; experiment: MTS cytotoxicity assay, BxPC-3; format: cell-based; conditions: 37 °C, triplicate, at least three experiments, errors = transformed greater extreme of standard error, read-out: BxPC-3 cell growth inhibition IC50
Description: as §1, §2, §3, §4, §5, §6

[5] = Table 2, inhibition of binding of 5 nM FITC-NoxaB to 10 nM Mcl-1, PBS, 0.05% Tween-20, pH 7.4, non-linear regression of at least three experiments, errors = transformed greater extreme of standard error
[6] = Table S2, binding inhibition of FITC-NoxaB to Mcl-1, small molecules not tested against cell lines, at least three experiments, errors = transformed greater extreme of standard error

T1 sequence (P97287 152-189 limits assumed): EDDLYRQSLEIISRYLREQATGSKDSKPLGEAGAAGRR
T1 sequence (Q07820 209-327 limits assumed): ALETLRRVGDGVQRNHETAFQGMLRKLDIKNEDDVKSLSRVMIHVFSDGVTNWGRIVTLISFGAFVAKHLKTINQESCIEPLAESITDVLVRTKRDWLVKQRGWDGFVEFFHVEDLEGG

Compound: CC[C@H](C)[C@H](NC(=O)[C@H](CCCNC(=N)N)NC(=O)[C@H](CCCNC(=N)N)NC(=O)[C@H](CC(C)C)NC(=O)[C@H](CCC(N)=O)NC(=O)[C@H](C)NC(=O)[C@H](C)NC(C)=O)C(=O)NCC(=O)N[C@@H](CC(=O)O)C(=O)N[C@@H](Cc1cn(Cc2ccccc2)nn1)C(N)=O [Compound 3]
IC50 [1]: 700 ± 800 nM

Compound: CC[C@H](C)[C@H](NC(=O)[C@H](CCCNC(=N)N)NC(=O)[C@H](CCCNC(=N)N)NC(=O)[C@H](CC(C)C)NC(=O)[C@H](CCC(N)=O)NC(=O)[C@H](C)NC(=O)[C@H](C)NC(C)=O)C(=O)NCC(=O)N[C@@H](CC(=O)O)C(=O)N[C@@H](Cc1cn(CC(=O)O)nn1)C(N)=O [Compound 4]
IC50 [1]: 5800 ± 4600 nM

Compound: COc1ccc(OC)c(-c2cn(CC(=O)N[C@@H](CCCCN)C(=O)N[C@H](C(=O)N[C@@H](CC(N)=O)C(=O)N[C@@H](CC(C)C)C(=O)N[C@@H](CCCNC(=N)N)C(=O)N[C@@H](CCC(N)=O)C(=O)N[C@@H](CCCCN)C(=O)N[C@@H](CC(C)C)C(=O)N[C@@H](CC(C)C)C(=O)N[C@@H](CC(N)=O)C(N)=O)C(C)C)nn2)c1 [Compound 9] (X2-KVNLRQKLLN-NH2)
IC50 [1]: 100 ± 100 nM

Compound: CC(C)C[C@H](NC(=O)[C@H](CC(C)C)NC(=O)[C@H](CCCCN)NC(=O)[C@H](CCC(N)=O)NC(=O)[C@H](CCCNC(=N)N)NC(=O)[C@H](CC(C)C)NC(=O)[C@H](CC(N)=O)NC(=O)[C@@H](NC(=O)[C@H](CCCCN)NC(=O)Cn1cc(-c2ccc([N+](=O)[O-])cc2)nn1)C(C)C)C(=O)N[C@@H](CC(N)=O)C(N)=O [Compound 11] (X3-KVNLRQKLLN-NH2)
IC50 [1]: 3500 ± 1500 nM

Compound: CC(C)C[C@H](NC(=O)[C@H](CC(C)C)NC(=O)[C@H](CCCCN)NC(=O)[C@H](CCC(N)=O)NC(=O)[C@H](CCCNC(=N)N)NC(=O)[C@H](CC(C)C)NC(=O)[C@H](CC(N)=O)NC(=O)[C@@H](NC(=O)[C@H](CCCCN)NC(=O)Cn1cc(-c2c(O)ccc3ccccc23)nn1)C(C)C)C(=O)N[C@@H](CC(N)=O)C(N)=O [Compound 13] (X4-KVNLRQKLLN-NH2)
IC50 [1]: 8200 ± 1900 nM

Compound: CC(C)C[C@H](NC(=O)[C@H](CC(C)C)NC(=O)[C@H](CCCCN)NC(=O)[C@H](CCC(N)=O)NC(=O)[C@H](CCCNC(=N)N)NC(=O)[C@H](CC(C)C)NC(=O)[C@H](CC(N)=O)NC(=O)[C@@H](NC(=O)[C@H](CCCCN)NC(=O)Cn1cc(-c2ccc(Cl)cc2Cl)nn1)C(C)C)C(=O)N[C@@H](CC(N)=O)C(N)=O [Compound 14] (X1-KVNLRQKLLN-NH2)
IC50 [1]: 8300 ± 3600 nM

Now from value to compound, other results behind:

IC50 [1]: 400 ± 300 nM
Compound: CC[C@H](C)[C@H](NC(=O)[C@H](CCCNC(=N)N)NC(=O)[C@H](CCCNC(=N)N)NC(=O)[C@H](CC(C)C)NC(=O)[C@H](CCC(N)=O)NC(=O)[C@H](C)NC(=O)[C@H](C)NC(C)=O)C(=O)NCC(=O)N[C@@H](CC(=O)O)C(=O)N[C@@H](Cc1cn(Cc2ccccc2F)nn1)C(N)=O [Compound 2]

IC50 [1, 5]: 217 ± 58 nM
Compound: Fc1ccccc1Cn1cc(C2=CCCCC2)nn1 [Compound 19]
IC50 ([2]; 72 h): > 100000 nM
IC50 ([3]; 72 h): > 100000 nM
IC50 ([4]; 72 h, SEM): 21600 ± 8830 nM

IC50 [1]: 1680 ± 694 nM
Compound: C1=C(c2cn(Cc3ccccc3)nn2)CCCC1 [Compound 22, 1-benzyl-4-(cyclohex-1-en-1-yl)-1H-1,2,3-triazole]
IC50 ([2]; Homo sapiens, MIA PaCa-2, 72 h): > 100000 nM
IC50 ([3]; Homo sapiens, ASPC1, 72 h): > 100000 nM
IC50 ([4]; Homo sapiens, BXPC-3, 72 h): > 100000 nM

IC50 [1, 5]: 2210 ± 877 nM
Compound: COC(=O)[C@H](Cc1cn(Cc2ccccc2C)nn1)NC(=O)OCC1c2ccccc2-c2ccccc21 [Compound 24, methyl (S)-2-((((9H-fluoren-9-yl)methoxy)carbonyl)amino)-3-(1-(2-methylbenzyl)-1H-1,2,3-triazol-4-yl)propanoate]
IC50 ([2]; 72 h, SEM): 2140 ± 560 nM
IC50 ([3]; 72 h, SEM): 2280 ± 1440 nM
IC50 ([4]; 72 h, SEM): 10700 ± 2720 nM

IC50 [1]: 5500 ± 3920 nM
Compound: Clc1ccc(-c2cn(Cc3ccccc3)nn2)c(Cl)c1 [Compound 25, 1-benzyl-4-(2,4-dichlorophenyl)-1H-1,2,3-triazole]
IC50 ([2]; Homo sapiens, MIA PaCa-2, 72 h): > 100000 nM
IC50 ([3]; Homo sapiens, ASPC1, 72 h): > 100000 nM
IC50 ([4]; Homo sapiens, BXPC-3, 72 h): > 100000 nM

IC50 [1, 6]: 497 ± 367 nM
Compound: CCc1ccc(-c2cn(CC(=O)O)nn2)cc1 [Compound S10]

IC50 [1, 6]: 561 ± 130 nM
Compound: O=C(O)Cn1cc(-c2ccc([N+](=O)[O-])cc2)nn1 [Compound S11]

IC50 [1, 6]: 766 ± 484 nM
Compound: Cc1ccc(-c2cn(CC(=O)O)nn2)c(C)c1 [Compound S12]
